Eight compounds from ChEMBL document CHEMBL5465560, “Selectivity Literature for EUbOPEN Chemogenomic Library” (2024) can be followed below.

Broadly, the IC50 is the concentration at which inhibition is half-maximal.

The target in test [1] is Activin receptor type-1-like (Homo sapiens) (UniProt P37023). Particulars: at 10 µM.
The target in test [2] is Receptor tyrosine-protein kinase erbB-2 (Homo sapiens, UniProt P04626). Kind of test: Selectivity interaction (Radiometric kinase assay (using 10 uM ATP)) EUB0000601a ERBB2.
Test [3] addresses T1, Testis-specific serine/threonine-protein kinase 1 (Homo sapiens) (UniProt Q9BXA7).
T1 sequence (whole entry): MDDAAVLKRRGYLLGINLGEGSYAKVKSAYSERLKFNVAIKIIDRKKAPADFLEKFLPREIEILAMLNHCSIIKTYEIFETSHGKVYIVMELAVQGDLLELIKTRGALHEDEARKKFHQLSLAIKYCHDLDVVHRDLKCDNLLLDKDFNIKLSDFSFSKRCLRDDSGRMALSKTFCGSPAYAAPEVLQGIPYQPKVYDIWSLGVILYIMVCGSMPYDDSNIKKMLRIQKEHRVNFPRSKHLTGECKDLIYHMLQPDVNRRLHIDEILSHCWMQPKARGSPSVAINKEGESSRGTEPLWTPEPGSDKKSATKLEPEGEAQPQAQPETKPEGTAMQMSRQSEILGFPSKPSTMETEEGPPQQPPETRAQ
Description: Selectivity interaction (KinomeScan (DiscoverX)) EUB0000695a TSSK1B. Particulars: at 100 nM.

Test [4] concerns the target Phosphatidylinositol 4,5-bisphosphate 3-kinase catalytic subunit beta isoform (Homo sapiens) (UniProt P42338). Description: Selectivity interaction (KinomeScan (DiscoverX)) EUB0000666a PIK3CB. To be noted: at 10 µM.
For test [5], the target named is DNA-dependent protein kinase catalytic subunit (Homo sapiens) (UniProt P78527). Kind of test: Selectivity interaction (ActivX KiNativ screen (kinase selectivity in THP-1 cell lysates)) EUB0000639a PRKDC. The format is subcellular. Particulars: lysate, at 5 µM.
Chain of DNA-dependent protein kinase catalytic subunit (Homo sapiens) (P78527 whole entry): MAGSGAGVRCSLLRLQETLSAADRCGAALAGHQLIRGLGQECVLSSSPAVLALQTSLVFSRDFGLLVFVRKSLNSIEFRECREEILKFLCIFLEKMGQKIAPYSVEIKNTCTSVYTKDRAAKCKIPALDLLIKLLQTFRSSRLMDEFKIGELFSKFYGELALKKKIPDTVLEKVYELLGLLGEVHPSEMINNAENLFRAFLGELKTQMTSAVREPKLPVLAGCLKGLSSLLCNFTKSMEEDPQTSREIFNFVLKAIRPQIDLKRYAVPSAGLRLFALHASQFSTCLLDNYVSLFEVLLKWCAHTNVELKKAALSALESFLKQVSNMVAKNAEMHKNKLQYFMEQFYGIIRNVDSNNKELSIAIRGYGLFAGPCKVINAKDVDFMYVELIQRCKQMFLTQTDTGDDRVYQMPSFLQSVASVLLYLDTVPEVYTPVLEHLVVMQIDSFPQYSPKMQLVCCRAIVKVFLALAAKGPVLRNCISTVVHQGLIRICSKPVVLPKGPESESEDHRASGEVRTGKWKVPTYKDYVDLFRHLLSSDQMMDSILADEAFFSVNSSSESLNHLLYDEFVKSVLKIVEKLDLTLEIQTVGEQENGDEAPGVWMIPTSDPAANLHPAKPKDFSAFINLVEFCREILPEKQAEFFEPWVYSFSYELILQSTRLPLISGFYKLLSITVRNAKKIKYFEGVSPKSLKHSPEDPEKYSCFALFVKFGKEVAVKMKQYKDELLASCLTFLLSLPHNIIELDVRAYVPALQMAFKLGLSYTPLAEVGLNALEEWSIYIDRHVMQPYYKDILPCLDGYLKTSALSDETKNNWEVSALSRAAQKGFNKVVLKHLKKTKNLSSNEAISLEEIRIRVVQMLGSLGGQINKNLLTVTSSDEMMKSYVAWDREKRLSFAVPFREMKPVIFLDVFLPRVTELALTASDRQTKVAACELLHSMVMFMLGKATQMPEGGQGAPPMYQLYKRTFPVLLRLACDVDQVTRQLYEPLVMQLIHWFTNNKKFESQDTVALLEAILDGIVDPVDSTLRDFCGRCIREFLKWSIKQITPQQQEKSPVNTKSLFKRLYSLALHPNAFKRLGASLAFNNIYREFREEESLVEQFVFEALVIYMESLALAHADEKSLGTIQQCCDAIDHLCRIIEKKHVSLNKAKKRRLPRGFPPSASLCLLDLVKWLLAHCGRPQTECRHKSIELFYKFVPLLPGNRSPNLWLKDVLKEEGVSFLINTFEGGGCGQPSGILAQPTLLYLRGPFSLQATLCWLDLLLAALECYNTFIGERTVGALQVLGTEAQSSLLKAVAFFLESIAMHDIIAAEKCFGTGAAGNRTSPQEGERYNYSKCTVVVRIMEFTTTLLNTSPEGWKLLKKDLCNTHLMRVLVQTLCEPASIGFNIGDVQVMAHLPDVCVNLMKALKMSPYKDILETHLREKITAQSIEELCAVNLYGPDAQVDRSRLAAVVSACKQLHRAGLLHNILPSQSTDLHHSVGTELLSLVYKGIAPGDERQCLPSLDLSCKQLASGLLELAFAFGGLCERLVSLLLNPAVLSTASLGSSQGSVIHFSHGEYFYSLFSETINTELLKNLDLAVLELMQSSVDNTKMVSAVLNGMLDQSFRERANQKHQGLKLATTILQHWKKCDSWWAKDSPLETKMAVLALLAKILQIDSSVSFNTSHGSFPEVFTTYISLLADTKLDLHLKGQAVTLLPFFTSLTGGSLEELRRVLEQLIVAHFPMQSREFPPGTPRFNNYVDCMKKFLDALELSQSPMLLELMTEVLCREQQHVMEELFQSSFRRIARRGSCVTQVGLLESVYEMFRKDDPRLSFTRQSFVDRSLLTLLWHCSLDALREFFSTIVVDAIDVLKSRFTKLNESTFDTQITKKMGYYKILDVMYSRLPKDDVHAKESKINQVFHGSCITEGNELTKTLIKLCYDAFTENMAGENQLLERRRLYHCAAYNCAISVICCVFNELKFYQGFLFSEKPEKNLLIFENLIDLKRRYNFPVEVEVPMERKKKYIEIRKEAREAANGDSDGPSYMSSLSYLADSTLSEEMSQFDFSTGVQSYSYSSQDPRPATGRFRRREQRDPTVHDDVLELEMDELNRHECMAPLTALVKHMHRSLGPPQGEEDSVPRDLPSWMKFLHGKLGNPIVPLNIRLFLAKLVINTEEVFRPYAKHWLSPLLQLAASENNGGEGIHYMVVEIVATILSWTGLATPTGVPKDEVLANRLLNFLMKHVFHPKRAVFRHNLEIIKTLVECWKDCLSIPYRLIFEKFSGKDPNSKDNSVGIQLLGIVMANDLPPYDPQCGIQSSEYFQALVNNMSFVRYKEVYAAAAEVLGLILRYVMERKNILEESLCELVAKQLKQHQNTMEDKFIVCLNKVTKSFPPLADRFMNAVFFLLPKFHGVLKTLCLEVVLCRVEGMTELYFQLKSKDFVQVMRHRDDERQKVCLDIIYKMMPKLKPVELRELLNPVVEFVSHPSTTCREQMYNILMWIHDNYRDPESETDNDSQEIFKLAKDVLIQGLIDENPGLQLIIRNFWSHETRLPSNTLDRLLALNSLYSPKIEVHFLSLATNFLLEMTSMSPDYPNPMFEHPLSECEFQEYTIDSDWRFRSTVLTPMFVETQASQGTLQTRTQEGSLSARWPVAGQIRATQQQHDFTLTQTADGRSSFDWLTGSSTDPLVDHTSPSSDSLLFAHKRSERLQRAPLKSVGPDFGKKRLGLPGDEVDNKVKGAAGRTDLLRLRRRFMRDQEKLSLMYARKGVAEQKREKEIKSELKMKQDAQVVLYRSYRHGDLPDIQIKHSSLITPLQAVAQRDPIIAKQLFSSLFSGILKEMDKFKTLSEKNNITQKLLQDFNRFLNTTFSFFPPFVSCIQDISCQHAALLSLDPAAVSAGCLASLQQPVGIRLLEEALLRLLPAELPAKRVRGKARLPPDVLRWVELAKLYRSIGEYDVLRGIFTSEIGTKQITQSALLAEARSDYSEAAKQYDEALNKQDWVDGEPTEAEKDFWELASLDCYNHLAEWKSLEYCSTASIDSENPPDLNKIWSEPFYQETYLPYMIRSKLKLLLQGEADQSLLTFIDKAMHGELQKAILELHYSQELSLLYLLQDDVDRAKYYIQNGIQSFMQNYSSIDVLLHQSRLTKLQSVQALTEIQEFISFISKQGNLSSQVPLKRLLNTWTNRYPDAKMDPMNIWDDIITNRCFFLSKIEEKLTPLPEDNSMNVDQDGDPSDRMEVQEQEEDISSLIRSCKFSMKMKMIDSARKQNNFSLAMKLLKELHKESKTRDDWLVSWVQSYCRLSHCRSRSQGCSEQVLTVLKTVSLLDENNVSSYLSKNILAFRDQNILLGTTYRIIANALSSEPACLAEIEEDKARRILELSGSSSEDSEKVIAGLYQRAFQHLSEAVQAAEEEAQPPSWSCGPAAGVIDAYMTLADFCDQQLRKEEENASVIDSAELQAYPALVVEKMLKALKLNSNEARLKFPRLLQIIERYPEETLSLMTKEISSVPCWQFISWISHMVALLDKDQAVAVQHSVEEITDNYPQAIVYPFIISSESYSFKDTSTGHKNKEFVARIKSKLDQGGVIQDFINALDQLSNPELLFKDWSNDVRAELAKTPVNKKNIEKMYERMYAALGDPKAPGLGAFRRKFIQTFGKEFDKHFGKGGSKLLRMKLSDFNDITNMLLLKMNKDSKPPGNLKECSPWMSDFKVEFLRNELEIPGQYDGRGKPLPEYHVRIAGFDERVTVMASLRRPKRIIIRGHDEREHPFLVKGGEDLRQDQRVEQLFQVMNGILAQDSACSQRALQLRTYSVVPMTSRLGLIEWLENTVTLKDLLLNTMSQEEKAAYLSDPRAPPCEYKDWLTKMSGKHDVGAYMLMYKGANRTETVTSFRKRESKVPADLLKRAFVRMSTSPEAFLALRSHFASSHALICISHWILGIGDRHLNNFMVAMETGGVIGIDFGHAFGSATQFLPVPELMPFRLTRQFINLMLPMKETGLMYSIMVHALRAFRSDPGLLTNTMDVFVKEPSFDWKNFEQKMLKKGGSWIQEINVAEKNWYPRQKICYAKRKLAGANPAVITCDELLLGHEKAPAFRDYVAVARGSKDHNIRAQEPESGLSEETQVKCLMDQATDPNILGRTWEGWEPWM
Test [6] has as its target Atypical kinase COQ8A, mitochondrial (Homo sapiens, UniProt Q8NI60). Kind of test: Selectivity interaction (KinomeScan (DiscoverX)) EUB0000595a ADCK3. Particulars: at 10 µM.
The target in test [7] is Death-associated protein kinase 1 (Homo sapiens, UniProt P53355). Kind of test: Selectivity interaction (KinomeScan (DiscoverX)) EUB0000595a DAPK1. Particulars: at 10 µM.
For test [8], the target named is T2, cGMP-dependent protein kinase 2 (Homo sapiens) (UniProt Q13237).
T2 sequence (whole entry): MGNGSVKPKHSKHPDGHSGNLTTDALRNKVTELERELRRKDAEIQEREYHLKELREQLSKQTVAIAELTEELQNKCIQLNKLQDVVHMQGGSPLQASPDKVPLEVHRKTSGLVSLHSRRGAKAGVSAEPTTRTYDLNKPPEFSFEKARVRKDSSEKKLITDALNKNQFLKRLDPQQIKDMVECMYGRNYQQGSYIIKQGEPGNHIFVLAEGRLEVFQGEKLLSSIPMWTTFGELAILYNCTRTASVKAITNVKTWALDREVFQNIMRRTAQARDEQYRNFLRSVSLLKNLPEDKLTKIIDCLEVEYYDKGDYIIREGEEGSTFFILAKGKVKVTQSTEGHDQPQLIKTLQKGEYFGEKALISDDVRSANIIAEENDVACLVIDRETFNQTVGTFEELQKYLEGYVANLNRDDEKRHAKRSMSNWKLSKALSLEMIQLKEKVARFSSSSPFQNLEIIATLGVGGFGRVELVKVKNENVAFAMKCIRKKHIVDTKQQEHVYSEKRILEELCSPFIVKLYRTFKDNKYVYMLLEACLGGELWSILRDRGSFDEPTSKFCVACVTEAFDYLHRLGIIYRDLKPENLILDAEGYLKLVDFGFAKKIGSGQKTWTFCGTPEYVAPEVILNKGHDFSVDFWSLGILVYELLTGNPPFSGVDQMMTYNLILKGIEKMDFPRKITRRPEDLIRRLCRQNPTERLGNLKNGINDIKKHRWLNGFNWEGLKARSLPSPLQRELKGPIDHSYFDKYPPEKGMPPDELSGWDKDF
Description: Selectivity interaction (KinomeScan (DiscoverX)) EUB0001619a PRKG2. To be noted: at 1 µM.

Test [9] has as its target T3, NUAK family SNF1-like kinase 2 (Homo sapiens) (UniProt Q9H093).
T3 sequence (whole entry): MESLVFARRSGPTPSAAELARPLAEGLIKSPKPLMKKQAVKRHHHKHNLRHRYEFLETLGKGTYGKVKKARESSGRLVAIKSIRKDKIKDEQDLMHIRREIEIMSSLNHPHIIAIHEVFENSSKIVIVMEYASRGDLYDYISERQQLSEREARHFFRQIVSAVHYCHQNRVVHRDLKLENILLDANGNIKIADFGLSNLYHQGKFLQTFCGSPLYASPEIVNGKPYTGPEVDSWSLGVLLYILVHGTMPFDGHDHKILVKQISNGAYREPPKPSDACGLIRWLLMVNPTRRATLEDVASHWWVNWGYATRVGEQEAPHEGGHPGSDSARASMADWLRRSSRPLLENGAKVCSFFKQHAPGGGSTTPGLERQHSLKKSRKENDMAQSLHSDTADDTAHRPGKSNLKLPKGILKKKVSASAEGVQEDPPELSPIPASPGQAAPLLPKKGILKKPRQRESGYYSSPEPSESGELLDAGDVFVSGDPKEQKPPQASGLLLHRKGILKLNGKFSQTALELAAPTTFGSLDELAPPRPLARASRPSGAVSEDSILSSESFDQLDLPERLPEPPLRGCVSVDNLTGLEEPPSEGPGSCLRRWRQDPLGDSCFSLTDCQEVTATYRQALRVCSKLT
Description: Selectivity interaction (KinomeScan (DiscoverX)) EUB0000618a NUAK2. To be noted: at 10 µM.

Molecules are shown by their SMILES.

Chain of Atypical kinase COQ8A, mitochondrial (Q8NI60 163-647 limits assumed): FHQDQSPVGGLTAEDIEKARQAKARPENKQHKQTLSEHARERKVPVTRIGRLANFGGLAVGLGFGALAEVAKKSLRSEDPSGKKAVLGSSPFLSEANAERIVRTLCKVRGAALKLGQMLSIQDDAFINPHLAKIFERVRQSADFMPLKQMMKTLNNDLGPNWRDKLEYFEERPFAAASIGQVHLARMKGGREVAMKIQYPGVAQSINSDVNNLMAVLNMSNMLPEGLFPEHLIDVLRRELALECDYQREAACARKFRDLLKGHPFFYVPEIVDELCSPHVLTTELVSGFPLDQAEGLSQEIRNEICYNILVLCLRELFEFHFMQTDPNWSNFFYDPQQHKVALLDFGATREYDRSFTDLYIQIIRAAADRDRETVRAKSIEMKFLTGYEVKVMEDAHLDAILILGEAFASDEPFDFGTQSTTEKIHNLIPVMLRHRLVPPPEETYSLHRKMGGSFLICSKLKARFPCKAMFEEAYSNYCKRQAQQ
Chain of Activin receptor type-1-like (Homo sapiens) (P37023 whole entry): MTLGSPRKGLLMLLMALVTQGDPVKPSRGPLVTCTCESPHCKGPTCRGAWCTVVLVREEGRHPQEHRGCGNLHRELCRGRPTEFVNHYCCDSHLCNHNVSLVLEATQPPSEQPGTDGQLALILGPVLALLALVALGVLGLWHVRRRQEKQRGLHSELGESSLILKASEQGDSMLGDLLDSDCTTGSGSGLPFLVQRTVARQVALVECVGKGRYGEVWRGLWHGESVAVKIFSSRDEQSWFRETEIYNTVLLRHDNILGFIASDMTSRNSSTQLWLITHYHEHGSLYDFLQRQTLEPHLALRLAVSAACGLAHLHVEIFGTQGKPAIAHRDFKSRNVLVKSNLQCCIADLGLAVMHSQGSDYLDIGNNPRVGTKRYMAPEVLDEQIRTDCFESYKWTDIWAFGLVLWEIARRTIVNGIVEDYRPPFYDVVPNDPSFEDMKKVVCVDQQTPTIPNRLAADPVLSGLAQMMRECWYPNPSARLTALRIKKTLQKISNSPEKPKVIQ

Turning to `Cc1cc([C@@H](C)Nc2ccccc2C(=O)O)c2nc(N3CCOCC3)cc(=O)n2c1` [AZD-6482], the % of control in test [1] turned out to be 89%.
In the case of `CCc1cc(Nc2nccc(-c3c(-c4ccc(OC)c(C(=O)Nc5c(F)cccc5F)c4)nc4ccccn34)n2)c(OC)cc1N1CCC(N2CCN(S(C)(=O)=O)CC2)CC1`, the IC50 in test [2] is above 10 µM.
In the case of `Cc1cc(F)c(C(=O)Nc2cccc(-c3nncn3C(C)C)n2)cc1-n1cnc(C2CC2)c1`, the % of control in test [3] was found to be 100%.
Consider `O=C(NOC[C@H](O)CO)c1ccc(F)c(F)c1Nc1ccc(I)cc1F`, for which the % of control in [4] was determined as 100%.
In the case of `CC[C@@H]1[C@H](F)C(=O)N[C@@H]1COc1nccc2cc(C(N)=O)c(OC)cc12` [ZIMLOVISERTIB], the % of inhibition in test [5] was -11.7%.
In the case of `COCC(=O)NC/C=C/c1ccc2ncnc(Nc3ccc(Oc4ccc(C)nc4)c(C)c3)c2c1` [CP-724714], the % of control in test [6] was determined as 100%; in test [7] it was 76%.
In test [8], `N#Cc1cccc(-c2c[nH]c3ncnc(N4CCOCC4)c23)c1` returned a % of control of 100%.
On to `O[C@H]1CC[C@H](Nc2ncc3nc(Nc4c(F)cc(F)cc4F)n([C@H]4CCOC4)c3n2)CC1`, for which the % of control in test [9] turned out to be 52%.
